We go through six compounds from patent US9181290B2, “Inhibition of biofilm formation by 1,2,3,4,6-penta-O-galloyl-D-glucopyranose” (CHANG GUNG UNIVERSITY, priority 2011, dated 2015).

pIC50: −log10 of the molar value. Read-outs that look alike come from different tables or passages of the source.

For assay [1], the system named is S. aureus SA113 (ATCC 35556). Briefly: Bacterial growth (A578) and biofilm formation (crystal violet, A595) in 96-well polystyrene microtiter plates. It is filed as cell-based, Staphylococcus aureus. The settings on record: for pIC50: Staphylococcus aureus, read-out: IB50 (concentration that inhibited 50% biofilm formation); for Cell Growth (%): growth compared to untreated control at the concentration of IB50. How it is done:
An overnight bacterial culture was 200-fold diluted with TSBg, and a 200 μL aliquot of the diluted culture was seeded into each well of 96-well polystyrene microtiter plates and incubated at 37° C. for a designated period of time. Cell growth was determined by measuring the absorbance at 578 nm (A578) with a microtiter plate reader (SpectraMax 340, Molecular Devices). After washing with PBS twice to remove suspended cells, the wells were stained with 0.1% (w/v) crystal violet in 10% ethanol and then treated with 30% acetic acid in dH2O, followed by detecting the absorbance at 595 nm (A595) with the microtiter plate reader to quantify the amount of biofilm formed on polystyrene surface.
An overnight culture of S. aureus SA113 was 200-fold diluted with TSBg, and a 200 μL aliquot of the diluted culture was seeded into each well of 96-well microtiter plates. Compounds purified from medicinal plants were added into each well at a designated concentration up to […]. At 6 hours after seeding, the amounts of biofilms formed in the wells were determined by crystal violet staining as described above. Cells treated with either distilled water or DMSO were used as a control. The amount of biofilm formation by the control group was set as 100%. Each experiment was repeated at least three times, with n=6 for each sample tested. The concentrations of compounds that inhibited 50% biofilm formation (IB50) were calculated based on logistic regression analysis results. Besides, the biofilm formation inhibition rate of a PGG-treated group was calculated using the following equation (1). Biofilm formation inhibition rate(%)=[(A−B)/A]×100 (1) wherein:
In the wells of 96-well microtiter plates, S. aureus SA113 cells were cultured in TSBg broth in the presence of either β-PGG or α-PGG at different amounts (0, 1 and 10 μM). After incubation at 37° C. for 6 hrs, the cell density was determined by measuring the absorbance at 578 nm (A578), and the amounts of biofilm were quantified by crystal violet staining, with the amount of biofilm formed by untreated bacterial cells being set as 100%. Each experiment was repeated three times, with n=6 for each sample tested.
To determine the effect(s) of (β-PGG upon bacterial growth and biofilm formation, β-PGG in various amounts (final concentration: 0, 1.56, 3.13, 6.25, 12.5, 25 and 50 μM) was added into the culture of S. aureus SA113 during seeding into the wells of polystyrene microtiter plates, followed by incubation at 37° C. for 6 hrs or 24 hrs. Cell growth was determined by measuring the absorbance at 578 nm, and the amount of biofilm formed on polystyrene surface was determined at 595 nm after crystal violet staining. In addition to polystyrene surface, the effect of β-PGG in inhibiting biofilm formation on polycarbonate surface was also examined according to the procedures as described in the preceding section entitled “Materials and methods.”

Assay [2] relates to S. aureus. Put plainly: Biofilm formation after treatment with other strong antioxidants (data not shown). It is filed as cell-based, Staphylococcus aureus.
[3] abbreviates: ATCC35556, 6 hours, logistic regression.

Regarding `NC(=O)CI` [IDA, Iodoacetamide, reference compound], the pIC50 in assay [1] (ATCC35556, 6 h) is 3.92. Further, in assay [1], the “Cell Growth (%)” value is 50%.

On to `CC(=O)N[C@@H](CS)C(=O)O` [NAC, N-acetylcysteine, reference compound], for which the pIC50 in assay [1] (setting [3]) is 2.20. The “Cell Growth (%)” value in assay [1] was 88%.

Take `O=C1C=CC(=O)N1c1ccccc1` [NPM, N-phenyl maleimide, reference compound]: the pIC50 in assay [1] (setting [3]) is 4.38. Besides, the “Cell Growth (%)” value in assay [1] amounted to 66%.

With `O=C1O[C@H]([C@@H](O)CO)C(O)=C1O` [ascorbic acid], the “influence on biofilm formation” value in assay [2] is listed as “does not influence biofilm formation”.

Consider `O=C(OC[C@H]1O[C@H](OC(=O)c2cc(O)c(O)c(O)c2)[C@H](OC(=O)c2cc(O)c(O)c(O)c2)[C@@H](OC(=O)c2cc(O)c(O)c(O)c2)[C@@H]1OC(=O)c1cc(O)c(O)c(O)c1)c1cc(O)c(O)c(O)c1` [α-PGG, 1,2,3,4,6-Penta-O-galloyl-α-D-glucopyranose], for which the “viability of S. aureus SA113 cells (A578)” value in assay [1] (1 μM and 10 μM, 6 hour incubation (anomer comparison)) is reported as “did not affect the viability”. Also, the “reduction of biofilm formation” value in assay [1] (1 μM, 6 hour incubation (anomer comparison)) is listed as 13%; in assay [1] (10 μM, 6 hour incubation (anomer comparison)), 65%.

On to (−)-epigallocatechin gallate, for which the “influence on biofilm formation” value in assay [2] was “does not influence biofilm formation”.
